{"source": "patent US20050065129A1", "about": "“2-Alkylidene-19-nor-vitamin D derivatives for the treatment of frailty, muscle damage or sarcopenia” (Pfizer Inc, priority 2003, published 2005)", "origin": "cited, not measured here", "key": {"[1]": {"system": "Intestinal Calcium Transport", "settings": "chronic 7 days, 130 and/or 260 pmol/day, rats"}, "[2]": {"system": "Serum Calcium (Bone Calcium Mobilization)", "settings": "chronic 7 days, rats; for bone calcium mobilization activity (in words): 130 and 260 pmol/day"}}}
{"compound": "C=C1/C(=C\\C=C2/CCC[C@]3(C)[C@@H]([C@H](C)CCCC(C)(C)O)CC[C@@H]23)C[C@@H](O)C[C@@H]1O", "note": "[1,25-(OH)2D3, 1,25-dihydroxyvitamin D3, reference compound]", "values": [{"measurement": "intestinal calcium transport activity (in words)", "setting": "[1]", "result": "expected elevation"}]}
{"compound": "C=C1[C@H](O)CC(=C/C=C2\\CCC[C@]3(C)[C@@H]([C@H](C)CCCC(C)(C)O)CC[C@@H]23)C[C@H]1O", "note": "[2-Methylene-19-Nor-1,25-(OH)2D3, 1α,25-dihydroxy-2-methylene-19-nor-vitamin D3]", "values": [{"measurement": "intestinal calcium transport activity (in words)", "setting": "[1]", "result": "no intestinal calcium transport activity"}, {"measurement": "bone calcium mobilization activity (in words)", "setting": "[2]", "result": "extremely strong bone calcium mobilization"}, {"measurement": "bone calcium mobilization (serum calcium) activity relative to 1,25-(OH)2D3 (native hormone)", "setting": "[2]; estimate", "result": "10-100 times"}]}
{"compound": "C=C1[C@H](O)CC(=C/C=C2\\CCC[C@]3(C)[C@@H]([C@@H](C)CCCC(C)(C)O)CC[C@@H]23)C[C@H]1O", "note": "[2-Methylene-19-Nor-20S-1,25-(OH)2D3, (20S)-1α,25-dihydroxy-2-methylene-19-nor-vitamin D3]", "values": [{"measurement": "intestinal calcium transport activity (in words)", "setting": "[1]", "result": "no significant change"}, {"measurement": "bone calcium mobilization activity (in words)", "setting": "[2]", "result": "most potent compound tested"}]}
